Earlier results as cited in article PMC7589057, “Synthesis of Hantzsch Adducts as Cholinesterases and Calcium Flux inhibitors, Antioxidants and Neuroprotectives” (International Journal of Molecular Sciences, 2020).
Read-outs that look alike come from different tables or passages of the source.

How the values were obtained:
[1] = system: SH-SY5Y cells; design: method as in PMID 27736061; settings: 0.1 µM; cited from earlier work
[2] = system: SH-SY5Y cells; design: method as in PMID 27736061; settings: 0.1 µM, cited from earlier work

SMILES: COc1ccc2[nH]cc(CCNC(C)=O)c2c1 [MEL, melatonin]
- H2O2 (%) neuroprotection [1]: 55.4 ± 7.73 *[10] %
- O/R (%) neuroprotection ([2]; listed as Melatonin): 66.6 ± 3.01 ***[10] %
- O/R (%) neuroprotection ([2]; listed as melatonin): 66.6%
